Converted amounts (≈) assume the structure as drawn.
Columns and labels:
Assay type in all cases: functional
Aspergillus clavatus = assay: Antimicrobial activity against Aspergillus clavatus MTCC 1323
Staphylococcus aureus = assay: Antimicrobial activity against Staphylococcus aureus MTCC 96 after 24 and 48 hr by serial broth dilution method
Escherichia coli = assay: Antimicrobial activity against Escherichia coli MTCC 443 after 24 and 48 hr by serial broth dilution method
Streptococcus pyogenes = assay: Antimicrobial activity against Streptococcus pyogenes MTCC 442 after 24 and 48 hr by serial broth dilution method
Candida albicans = assay: Antimicrobial activity against Candida albicans MTCC 227
Pseudomonas aeruginosa = assay: Antimicrobial activity against Pseudomonas aeruginosa MTCC 1688 after 24 and 48 hr by serial broth dilution method
Aspergillus niger = assay: Antimicrobial activity against Aspergillus niger MTCC 282

MIC (Aspergillus clavatus)	MIC (Staphylococcus aureus)	MIC (Escherichia coli)	MIC (Streptococcus pyogenes)	MIC (Candida albicans)	MIC (Pseudomonas aeruginosa)	MIC (Aspergillus niger)	Compound
100 µg/mL (≈ 194 µM)	100 µg/mL (≈ 194 µM)	100 µg/mL (≈ 194 µM)	100 µg/mL (≈ 194 µM)	500 µg/mL (≈ 971 µM)	500 µg/mL (≈ 971 µM)	1000 µg/mL (≈ 1940 µM)	COc1ccc(/C=C/C(=O)N2N=C(c3ccc([N+](=O)[O-])cc3)OC2c2cc3ccccc3nc2Cl)cc1 (stereo unspecified)
500 µg/mL (≈ 963 µM)	100 µg/mL (≈ 193 µM)	100 µg/mL (≈ 193 µM)	100 µg/mL (≈ 193 µM)	100 µg/mL (≈ 193 µM)	200 µg/mL (≈ 385 µM)	100 µg/mL (≈ 193 µM)	O=C(/C=C/c1cccc(Cl)c1)N1N=C(c2ccc([N+](=O)[O-])cc2)OC1c1cc2ccccc2nc1Cl (stereo unspecified)
1000 µg/mL (≈ 2000 µM)	200 µg/mL (≈ 401 µM)	200 µg/mL (≈ 401 µM)	250 µg/mL (≈ 501 µM)	250 µg/mL (≈ 501 µM)	100 µg/mL (≈ 200 µM)	100 µg/mL (≈ 200 µM)	Cc1ccc(/C=C/C(=O)N2N=C(c3ccc([N+](=O)[O-])cc3)OC2c2cc3ccccc3nc2Cl)cc1 (stereo unspecified)
100 µg/mL (≈ 174 µM)	500 µg/mL (≈ 870 µM)	200 µg/mL (≈ 348 µM)	500 µg/mL (≈ 870 µM)	100 µg/mL (≈ 174 µM)	200 µg/mL (≈ 348 µM)	100 µg/mL (≈ 174 µM)	COc1cc(/C=C/C(=O)N2N=C(c3ccc([N+](=O)[O-])cc3)OC2c2cc3ccccc3nc2Cl)cc(OC)c1OC (stereo unspecified)
100 µg/mL (≈ 200 µM)	200 µg/mL (≈ 399 µM)	25 µg/mL (≈ 49.9 µM)	100 µg/mL (≈ 200 µM)	500 µg/mL (≈ 998 µM)	50 µg/mL (≈ 99.8 µM)	200 µg/mL (≈ 399 µM)	O=C(/C=C/c1cccc(O)c1)N1N=C(c2ccc([N+](=O)[O-])cc2)OC1c1cc2ccccc2nc1Cl (stereo unspecified)
500 µg/mL (≈ 963 µM)	500 µg/mL (≈ 963 µM)	500 µg/mL (≈ 963 µM)	500 µg/mL (≈ 963 µM)	250 µg/mL (≈ 481 µM)	500 µg/mL (≈ 963 µM)	500 µg/mL (≈ 963 µM)	O=C(/C=C/c1ccccc1Cl)N1N=C(c2ccc([N+](=O)[O-])cc2)OC1c1cc2ccccc2nc1Cl (stereo unspecified)
100 µg/mL (≈ 189 µM)	500 µg/mL (≈ 944 µM)	50 µg/mL (≈ 94.4 µM)	200 µg/mL (≈ 377 µM)	500 µg/mL (≈ 944 µM)	50 µg/mL (≈ 94.4 µM)	500 µg/mL (≈ 944 µM)	O=C(/C=C/c1ccccc1[N+](=O)[O-])N1N=C(c2ccc([N+](=O)[O-])cc2)OC1c1cc2ccccc2nc1Cl (stereo unspecified)
100 µg/mL (≈ 189 µM)	100 µg/mL (≈ 189 µM)	100 µg/mL (≈ 189 µM)	500 µg/mL (≈ 944 µM)	500 µg/mL (≈ 944 µM)	500 µg/mL (≈ 944 µM)	1000 µg/mL (≈ 1890 µM)	O=C(/C=C/c1ccc([N+](=O)[O-])cc1)N1N=C(c2ccc([N+](=O)[O-])cc2)OC1c1cc2ccccc2nc1Cl (stereo unspecified)
1000 µg/mL (≈ 1930 µM)	1000 µg/mL (≈ 1930 µM)	200 µg/mL (≈ 385 µM)	500 µg/mL (≈ 963 µM)	100 µg/mL (≈ 193 µM)	100 µg/mL (≈ 193 µM)	200 µg/mL (≈ 385 µM)	O=C(/C=C/c1ccc(Cl)cc1)N1N=C(c2ccc([N+](=O)[O-])cc2)OC1c1cc2ccccc2nc1Cl (stereo unspecified)
100 µg/mL (≈ 283 µM)	–	–	–	500 µg/mL (≈ 1420 µM)	–	100 µg/mL (≈ 283 µM)	COC1=CC(=O)C[C@@H](C)[C@]12Oc1c(Cl)c(OC)cc(OC)c1C2=O [GRISEOFULVIN]
500 µg/mL (≈ 944 µM)	500 µg/mL (≈ 944 µM)	1000 µg/mL (≈ 1890 µM)	100 µg/mL (≈ 189 µM)	100 µg/mL (≈ 189 µM)	500 µg/mL (≈ 944 µM)	100 µg/mL (≈ 189 µM)	O=C(/C=C/c1cccc([N+](=O)[O-])c1)N1N=C(c2ccc([N+](=O)[O-])cc2)OC1c1cc2ccccc2nc1Cl (stereo unspecified)
500 µg/mL (≈ 998 µM)	100 µg/mL (≈ 200 µM)	250 µg/mL (≈ 499 µM)	500 µg/mL (≈ 998 µM)	500 µg/mL (≈ 998 µM)	50 µg/mL (≈ 99.8 µM)	100 µg/mL (≈ 200 µM)	O=C(/C=C/c1ccc(O)cc1)N1N=C(c2ccc([N+](=O)[O-])cc2)OC1c1cc2ccccc2nc1Cl (stereo unspecified)
500 µg/mL (≈ 998 µM)	500 µg/mL (≈ 998 µM)	500 µg/mL (≈ 998 µM)	250 µg/mL (≈ 499 µM)	1000 µg/mL (≈ 2000 µM)	250 µg/mL (≈ 499 µM)	500 µg/mL (≈ 998 µM)	O=C(/C=C/c1ccccc1O)N1N=C(c2ccc([N+](=O)[O-])cc2)OC1c1cc2ccccc2nc1Cl (stereo unspecified)

Compound	MIC (Aspergillus clavatus)	MIC (Staphylococcus aureus)	MIC (Escherichia coli)	MIC (Streptococcus pyogenes)	MIC (Candida albicans)	MIC (Pseudomonas aeruginosa)	MIC (Aspergillus niger)
CC1(C)S[C@@H]2[C@H](NC(=O)[C@H](N)c3ccccc3)C(=O)N2[C@H]1C(=O)O [AMPICILLIN]	–	250 µg/mL (≈ 715 µM)	100 µg/mL (≈ 286 µM)	100 µg/mL (≈ 286 µM)	–	100 µg/mL (≈ 286 µM)	–

From ChEMBL document CHEMBL3045236, “Conventional and microwave techniques for synthesis and antimicrobial studies of novel 1-[2-(2-chloro(3-quinolyl))-5-(4-nitrophenyl)-(1,3,4-oxadiazolin-3-yl)]-3-(aryl)prop-2-en-1-ones” (2012)
